Assay results published in paper PMC5296932 (Angewandte Chemie (International ed. in English), 2016).
Starred links: 1 amine or outer side, 2 acyl side, 3 side chain; linkers in the order of their positions; H or OH if unused. Positions of bridges follow the written chain, without caps; N, C: chain ends. Non-standard residues stand in square brackets, D forms with d. Residues, ends and D or L forms follow the SMILES beside them. X1 = O=C(c1cc(CS[*:2])cc(CS[*:3])c1)[*:1]; 2Nal = N[C@@H](Cc1ccc2ccccc2c1)C(=O)O; Mpa = O=C(O)CCS

Legend:
[1] = Proteolytic stability in human serum; type: in vitro ADME
[2] = In vitro reduction of disulfide bonds by glutathione; type: physicochemical; conditions: 5 mM glutathione, 2 h

half-life in human serum [1] | reduction of the disulfide bonds [2] | half-life ([1]; human serum) [min] | SMILES
~ 10 h | completely reduced |  | CC(C)C[C@@H]1NC(=O)[C@H](C)NC(=O)[C@@H]2CSSCc3cc(cc(c3)C(=O)N[C@@H](CCCNC(=N)N)C(=O)N[C@@H](CCCNC(=N)N)C(=O)N[C@@H](CCCNC(=N)N)C(=O)N[C@@H](CCCNC(=N)N)C(=O)N[C@@H](Cc3ccc4ccccc4c3)C(=O)N[C@@H](Cc3ccccc3)C(=O)N2)CSSC[C@@H](C(N)=O)NC(=O)[C@H](CCC(N)=O)NC(=O)[C@H](CC(C)C)NC(=O)[C@H](Cc2c[nH]c3ccccc23)NC(=O)[C@H](CO)NC(=O)[C@H](Cc2c[nH]c3ccccc23)NC(=O)[C@H](CC(=O)O)NC1=O [Peptide 4] (RRRR[2Nal]FCALDWSWLQC-NH2; linker N-7-16 via X1)
 |  | ~30 | CC(C)C[C@H](NC(=O)[C@H](C)NC(=O)[C@@H]1CSSCCC(=O)N[C@@H](CCCNC(=N)N)C(=O)N[C@@H](CCCNC(=N)N)C(=O)N[C@@H](CCCNC(=N)N)C(=O)N[C@@H](CCCNC(=N)N)C(=O)N[C@@H](Cc2ccc3ccccc3c2)C(=O)N[C@@H](Cc2ccccc2)C(=O)N1)C(=O)N[C@@H](CC(=O)O)C(=O)N[C@@H](Cc1c[nH]c2ccccc12)C(=O)N[C@@H](CO)C(=O)N[C@@H](Cc1c[nH]c2ccccc12)C(=O)N[C@@H](CC(C)C)C(=O)N[C@@H](CCC(N)=O)C(=O)N[C@H](C(N)=O)[C@@H](C)O [Peptide 6] ([Mpa]RRRR[2Nal]FCALDWSWLQT-NH2; disulfide 1-8; C-terminus assumed)
